# In patent US12268691B2 (Sinopia Biosciences, Inc., priority 2016, dated 2025):
# Tests used:
# [1] = test system: 433 gene transcriptomic signature; settings: 10 uM, MCF7 cells; FIG. 3
# [2] = biological target: T1, CYP1A2 (Homo sapiens, UniProt P05177); settings: cited from earlier work
# T1 sequence (P05177 1-516): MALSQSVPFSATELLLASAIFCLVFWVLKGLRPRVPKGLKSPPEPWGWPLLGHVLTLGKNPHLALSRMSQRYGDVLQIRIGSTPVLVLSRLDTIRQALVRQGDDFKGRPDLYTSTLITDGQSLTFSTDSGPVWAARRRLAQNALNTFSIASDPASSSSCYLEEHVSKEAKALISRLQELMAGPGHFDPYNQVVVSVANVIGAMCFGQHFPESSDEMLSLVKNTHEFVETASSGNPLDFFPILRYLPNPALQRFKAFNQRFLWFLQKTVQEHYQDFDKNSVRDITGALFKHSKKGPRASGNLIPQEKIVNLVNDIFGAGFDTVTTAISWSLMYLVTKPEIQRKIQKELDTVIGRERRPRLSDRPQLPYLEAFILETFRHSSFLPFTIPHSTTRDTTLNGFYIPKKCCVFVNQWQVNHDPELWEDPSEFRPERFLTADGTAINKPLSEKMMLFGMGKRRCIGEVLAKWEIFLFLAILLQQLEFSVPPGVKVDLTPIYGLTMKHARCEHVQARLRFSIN
compound,measurement,setting,value
O=C(CCCN1CCC(O)(c2ccc(Cl)cc2)CC1)c1ccc(F)cc1 [haloperidol],"extrapyramidal syndrome propensity score, compound alone",[1],much higher propensity than risperidone
same,interaction with CYP1A2,[2],has not been shown to interact with haloperidol
